Experimental data reported in ChEMBL document CHEMBL3244413, “A phenazine analogue of actinomycin D” (1979).
*1 amine or outer side, *2 acyl side, *3 side chain or, on linkers, in order; H or OH if unused. Where a SMILES comes first, the peptide text is derived from it. Bridges are numbered along the chain shown (N, C = ends). Roman numbers before positions name the chains, in order. [ ]: non-standard residue; d: D form. Actinocin(1to9) = Cc1c2oc3c(C)ccc(C(=O)[*:2])c3nc-2c(C(=O)[*:1])c(N)c1=O; NMeV = CN[C@H](C(=O)O)C(C)C; Sar = CNCC(=O)O

Key:
[1] = system: Calf thymus DNA; assay: Binding affinity to calf thymus DNA at 5.2 x 10^-6 M by CD spectra analysis; type: nucleic-acid assay; details: Bos taurus
[2] = system: L1210; assay: Inhibition of DNA synthesis in mouse L1210 cells by [3H]-thymidine incorporation assay; type: functional; details: read-out: ED50 (the source's name)
[3] = system: L1210; assay: Inhibition of RNA synthesis in mouse L1210 cells by [3H]-uridine incorporation assay; type: functional; details: read-out: ED50 (the source's name)

Cc1c2oc3c(C)ccc(C(=O)N[C@@H]4C(=O)N[C@H](C(C)C)C(=O)N5CCC[C@H]5C(=O)N(C)CC(=O)N(C)[C@@H](C(C)C)C(=O)O[C@@H]4C)c3nc-2c(C(=O)N[C@@H]2C(=O)N[C@H](C(C)C)C(=O)N3CCC[C@H]3C(=O)N(C)CC(=O)N(C)[C@@H](C(C)C)C(=O)O[C@@H]2C)cc1=O
ΔTm [1]: 9.9 °C
EC50 [2]: 63000 nM
EC50 [3]: 700 nM

Cc1c2oc3c(C)ccc(C(=O)N[C@@H]4C(=O)N[C@H](C(C)C)C(=O)N5CCC[C@H]5C(=O)N(C)CC(=O)N(C)[C@@H](C(C)C)C(=O)O[C@@H]4C)c3nc-2c(C(=O)N[C@@H]2C(=O)N[C@H](C(C)C)C(=O)N3CCC[C@H]3C(=O)N(C)CC(=O)N(C)[C@@H](C(C)C)C(=O)O[C@@H]2C)c(N)c1=O [DACTINOMYCIN] (I: T[dV]P[Sar][NMeV] / II: T[dV]P[Sar][NMeV]; ester I:1-I:C, II:1-II:C; linker I:N-II:N via Actinocin(1to9))
ΔTm [1]: 7.1 °C
EC50 [2]: 600 nM
EC50 [3]: 15 nM

Cc1ccc(C(=O)N[C@@H]2C(=O)N[C@H](C(C)C)C(=O)N3CCC[C@H]3C(=O)N(C)CC(=O)N(C)[C@@H](C(C)C)C(=O)O[C@@H]2C)c2nc3c(C(=O)N[C@@H]4C(=O)N[C@H](C(C)C)C(=O)N5CCC[C@H]5C(=O)N(C)CC(=O)N(C)[C@@H](C(C)C)C(=O)O[C@@H]4C)cccc3nc12
ΔTm [1]: 3.4 °C
EC50 [2]: 9200 nM
EC50 [3]: 230 nM
